Where a SMILES comes first, the peptide text is derived from it. [ ]: non-standard residue; d: D form. ξ: configuration not given here. ξP = O=C(O)C1CCCN1
What was measured:
[1] = target: glycine co-agonist site on the NMDA receptor (Rattus norvegicus, UniProt P35439); assay: [3H] MDL-105519 radioligand binding assay, glycine co-agonist site of the NMDA receptor; details: displacement of 0.33 nM [3H] MDL-105519, rat cerebral cortex membranes
Protocol: Polypeptides or amino acid compositions of the instant invention were tested for the ability to bind to the glycine co-agonist site on the NMDA receptor using a previously validated [3H] MDL-105519 radioligand binding assay (see, for example Siegel B W, Sreekrishna K, Baron B M. Eur J Pharmacol. 1996 Oct. 3; 312(3):357-65). Upon binding, the peptide is displacing the parent radioligand from the NR1a binding site of the NMDA receptor. Binding inhibition of 50% or more is generally considered as significant.
Crude synaptic membranes used in the assay were prepared using rat cerebral cortex tissue (male Wistar rats) and extensively washed using the procedures described previously (Haring et al., 1991, J. Neurochem. 57:323-331). Briefly, tissue which has been stored at −80° C. was homogenized in ice-cold 5 mM Tris (pH 7.4) using a Polytron and then pelleted by centrifugation at 48,000 g for 20 minutes. The resulting supernatant was discarded, and the membranes washed three times in cold buffer. […]
Frozen pellets were thawed at room temperature and washed three times by resuspension in 50 mM Tris-acetate (pH 7.4) and centrifugation. […] Non-specific binding was determined using 10 μM unlabelled MDL-105519. […]
(§1) Assay results are presented as the % inhibition of specific binding. […] Semi-quantitative follow-up to estimate IC50 was done in duplicates at the indicated peptide concentrations.

AMPA receptor [2] = assay: Whole cell patch-clamp on CA1 pyramidal cells in brain slices, synaptic AMPA responses; assay type: cell-based, C57BL/6 mice
Protocol: Whole cell patch-clamp experiments were performed in parasagital brain slices on CAI pyramidal cells. The animals used for this study were C57BL/6 mice. After decapitation of the mice brains were quickly removed and placed in aerated (95% O2, 5% CO2) artificial cerebrospinal fluid (ASCF) solution at 4° C. The ACSF solution was composed of (mM): 124 NaCl, 2.5 KCl, 1.3 MgCl2, 26 NaHCO3, 1.25 NaH2PO4, 2.5 CaCl2 […] Synaptic AMPA responses were evoked every 10 seconds with a bipolar platinum electrode and recorded in the voltage clamp configuration with 4-5 MΩ patch pipette at a holding potential of −60 mV. Baseline recordings were performed with 100 μM picrotoxin in the ACSF. After establishing a stable synaptic AMPA response the tripeptide EPP (140 μM) was added to the bath, continuing the recording for an additional 20 to 30 minutes. At the end of every experiment NBQX (20 μM) was bath applied to block the AMPA response. The residual trace was subtracted from the previous recordings to show only the AMPA current. […]
Parameters measured to estimate the action of EPP were the holding current, amplitude, and initial slope of the AMPA responses. Additionally the amplitude ratio and initial slope ratio of the two AMPA responses from the paired pulse experiments was determined.

AMPA receptor [3] = assay: [3H] AMPA radioligand binding assay; details: displacement of 5 nM [3H] AMPA, rat cerebral cortex membranes, 25° C., 90 min; semi-quantitative, duplicates
Protocol: Polypeptides or amino acid compositions of the instant invention were tested for the ability to bind to the AMPA receptor using a previously validated [3H] AMPA radioligand to binding assay (see, for example Olsen R W, Szamraj O, Houser C R Brain Res. 1987; 402(2):243-54.). Upon binding, the peptide is displacing the parent radioligand from the glutamate binding site of the AMPA receptor. Binding inhibition of 50% or more is generally considered as significant.
The membrane has been prepared as described in example 1.
Frozen pellets were thawed at room temperature and washed three times by resuspension in 50 mM Tris-acetate (pH 7.4) and centrifugation. Final pellets were suspended at concentrations of 2 to 3 mg/ml in 50 mM Tris-HCl (pH 7.4, 200 mM KSCN). Binding reactions were initiated by the addition of 200 μg of freshly prepared membranes to reaction mixtures (about 1 ml final volume) containing 5 nM [3H] AMPA at 25° C. in the presence of a range of peptide concentrations (0.5 μM, 1 μM, 10 μM, 100 μM and 200 μM). Incubation time was 90 min. Non-specific binding was determined using 1000 μM unlabelled L-Glutamic acid. […]
as §1

Structure (SMILES): NCC(=O)NCC(=O)N1CCCC1C(=O)O (stereo not drawn) [GGP] (H-Gly-Gly-[ξP]-OH)
- IC50 ([1]; 4° C., 30 min, semi-quantitative, duplicates): 11.3 µM

Structure (SMILES): O=C(O)/C(=C/c1c(C(=O)O)[nH]c2cc(Cl)cc(Cl)c12)c1ccccc1 [MDL-105519, reference compound]
- IC50 ([1]; reference compound): 0.0096 µM

Structure (SMILES): NC(CCC(=O)O)C(=O)N1CCCC1C(=O)N1CCCC1C(=O)O (stereo not drawn) [EPP] (H-Glu-Pro-Pro-OH; configuration not given here)
- amplitude of the first synaptic AMPA response (AMPA receptor [2]; 140 μM EPP in bath, baseline −83.9±14.1 pA, p<0.05, holding potential −60 mV): −130.6±22.6 pA
- change in slope of the AMPA response (AMPA receptor [2]; 140 μM EPP versus baseline, p=0.06): just failed to reach significance
- IC50 (AMPA receptor [3]): 14 µM

— patent US20100166859A1, “NOVEL NUTRACEUTICAL COMPOSITIONS AND USE THEREOF” (priority 2006, published 2010)
